Source: ChEMBL document CHEMBL1126486, “Stable isosteres of neurotensin c-terminal pentapeptides derived by modification of the amide function” (Bioorg Med Chem Lett, 1993)
pKi: −log10 of the molar value. Where a SMILES comes first, the peptide text is derived from it. [ ]: non-standard residue; d: D form. The star is where a group is joined. Adamantane1carbonyl = O=C(C12CC3CC(CC(C3)C1)C2)*; Orn = NCCC[C@H](N)C(=O)O; Boc = CC(C)(C)OC(=O)*

Columns and labels:
[1] = target: Neurotensin receptor type 1 (Rattus norvegicus, UniProt P20789); assay: Neurotensin receptor binding affinity by displacement of [3H]- neurotensin
Mus musculus [2] = assay: Antinociceptive activity was determined using the phenylquinone writhing assay by […] administration; format: functional
Mus musculus [3] = assay: Antinociceptive activity was determined using the phenylquinone writhing assay by intravenous administration; format: functional

Sequence of Neurotensin receptor type 1 (P20789 whole entry): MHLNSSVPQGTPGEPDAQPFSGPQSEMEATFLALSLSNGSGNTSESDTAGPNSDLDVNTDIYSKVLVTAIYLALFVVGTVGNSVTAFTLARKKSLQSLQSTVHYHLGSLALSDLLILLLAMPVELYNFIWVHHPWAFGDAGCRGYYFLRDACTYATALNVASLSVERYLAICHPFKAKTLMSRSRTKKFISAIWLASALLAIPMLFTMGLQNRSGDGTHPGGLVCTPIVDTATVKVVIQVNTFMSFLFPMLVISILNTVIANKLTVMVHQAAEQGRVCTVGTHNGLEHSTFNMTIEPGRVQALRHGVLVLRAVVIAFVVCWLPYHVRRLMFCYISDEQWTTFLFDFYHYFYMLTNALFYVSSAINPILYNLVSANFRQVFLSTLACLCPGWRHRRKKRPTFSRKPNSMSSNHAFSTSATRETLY

Row | Molecule | pKi [1] | Activity (Mus musculus [2]) [ug mouse-1] | Activity (Mus musculus [3]) [mg/kg]
1 | CC[C@H](C)[C@H](NC(=O)[C@H](Cc1ccc(O)cc1)N/C=C/C(=O)[C@@H]1CCCN1C(=O)[C@H](CCCCN)NC(=O)OC(C)(C)C)C(=O)N[C@@H](CC(C)C)C(=O)O | 5.79 | 22 | >27
2 | CC[C@H](C)[C@H](NNCC(=O)[C@H](Cc1ccc(O)cc1)NC(=O)[C@@H]1CCCN1C(=O)[C@H](CCCN)NC(=O)OC(C)(C)C)C(=O)N[C@@H](CC(C)C)C(=O)O | < 5.00 | 29 | 
3 | CC[C@H](C)[C@H](NC(=O)[C@H](Cc1ccc(O)cc1)NNCC(=O)[C@@H]1CCCN1C(=O)[C@H](CCCCN)NC(=O)C12C[C@H]3C[C@@H](C1)C[C@@H](C2)C3)C(=O)N[C@@H](CC(C)C)C(=O)O | 5.79 | 4.5 | 20
4 | CC[C@H](C)[C@H](NNCC(=O)[C@H](Cc1ccc(O)cc1)NC(=O)[C@@H]1CCCN1C(=O)[C@H](CCCCN)NC(=O)C12C[C@H]3C[C@@H](C1)C[C@@H](C2)C3)C(=O)N[C@@H](CC(C)C)C(=O)O | 5.22 | >50 | 
5 | CC[C@H](C)[C@H](NNCC(=O)[C@H](Cc1ccc(O)cc1)NC(=O)[C@@H]1CCCN1NCC(=O)[C@H](CCCCN)NC(=O)C12C[C@H]3C[C@@H](C1)C[C@@H](C2)C3)C(=O)N[C@@H](CC(C)C)C(=O)O | 5.41 | >50 | 
6 | CC[C@H](C)[C@H](NC(=O)[C@H](Cc1ccc(O)cc1)NC(=O)[C@@H]1CCCN1C(=O)[C@H](CCCCN)NC(=O)OC(C)(C)C)C(=O)N[C@@H](CC(C)C)C(=O)O (Boc-KPYIL-OH) | 7.20 | 0.018 | 3

Further molecules by rising pKi [1], results first:

Row | pKi [1] | Molecule | Activity (Mus musculus [2]) [ug mouse-1] | Activity (Mus musculus [3]) [mg/kg]
7 | 5.53 | CC[C@H](C)[C@H](NC(=O)[C@H](Cc1ccc(O)cc1)NNCC(=O)[C@@H]1CCCN1C(=O)[C@H](CCCN)NC(=O)OC(C)(C)C)C(=O)N[C@@H](CC(C)C)C(=O)O | 0.89 | 37
8 | 6.16 | H-KPYIL-OH | 5.9 | >81
9 | 6.93 | CC[C@H](C)[C@H](NC(=O)[C@H](Cc1ccc(O)cc1)NC(=O)[C@@H]1CCCN1C(=O)[C@H](CCCCN)NC(=O)C12CC3CC(CC(C3)C1)C2)C(=O)N[C@@H](CC(C)C)C(=O)O (Adamantane1carbonyl-KPYIL-OH) | 0.15 | 2.2
10 | 7.09 | CC[C@H](C)[C@H](NC(=O)[C@H](Cc1ccc(O)cc1)NC(=O)[C@@H]1CCCN1C(=O)[C@H](CCCN)NC(=O)OC(C)(C)C)C(=O)N[C@@H](CC(C)C)C(=O)O (Boc-[Orn]PYIL-OH) | 0.00097 | 0.74
